Legend:
[1] = Fluorescence spectra of coelenteramide analogue alone (absence of apoaequorin); format: physicochemical; conditions: analogue alone 8 μg/ml
Procedure, shortened: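 Coelenteramide analogue at 8 μg/ml without apoaequorin in 50 mM Tris-HCl pH 7.6 with 1 mM DTT plus either 10 mM EDTA or 10 mM CaCl2. Fluorescence spectra recorded at 25° C, excitation 337 nm, 3 nm bandwidth.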

[2] = target: T1, apoaequorin (Aequorea victoria, UniProt P07164); test: Fluorescence spectra of semi-synthetic gFP (coelenteramide analogue + apoaequorin, EDTA); format: physicochemical; conditions: 10 mM EDTA buffer, excitation 337 nm
T1 construct: purchased Chisso Corporation
T1 sequence (P07164 other isoform, or with tags, fused parts or gaps with the stated changes): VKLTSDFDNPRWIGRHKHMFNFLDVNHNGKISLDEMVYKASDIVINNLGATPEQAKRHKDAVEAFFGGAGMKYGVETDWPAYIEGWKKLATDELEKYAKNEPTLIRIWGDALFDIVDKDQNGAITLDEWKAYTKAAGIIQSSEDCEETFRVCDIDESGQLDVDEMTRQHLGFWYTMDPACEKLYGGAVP
Procedure, shortened: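 Apoaequorin (0.2 mg) incubated with coelenteramide analogue 16 h at 4 °C in 50 mM Tris-HCl pH 7.6, 10 mM EDTA, 1 mM DTT to form semi-synthetic gFP. Emission spectra at 25 °C, excitation 337 nm. Analogue-alone controls at 8 μg/ml final, in EDTA or 10 mM CaCl2 buffer.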

[3] = target: T1, apoaequorin; test: Fluorescence spectra of semi-synthetic BFP (coelenteramide analogue + apoaequorin, CaCl2); format: physicochemical; conditions: 10 mM CaCl2 buffer, excitation 337 nm
Procedure, shortened: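 Apoaequorin (0.2 mg) was mixed with coelenteramide analogue in 50 mM Tris-HCl pH 7.6, 10 mM CaCl2, 1 mM DTT and held 16 h at 4° C. Analogue-alone controls were run at 8 μg/ml final in the same buffer with 10 mM EDTA or CaCl2. Spectra were recorded at 25° C., excitation 337 nm.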

[4] = target: T1, apoaequorin; test: Luciferase activity of semi-synthetic BFPs using coelenterazine as substrate; format: biochemical; conditions: Imax, 10 mM CaCl2, 10 seconds, BFP from CTMD = 100
Procedure: To confirm that semi-synthetic BFPs prepared from coelenteramide analogues and apoaequorin, which are novel fluorescent proteins having luciferase activity, the luminescence reaction was performed in the presence of calcium ions, using coelenterazine as a light emitting substrate. After 5 μl (corresponding to 1 μg protein) of a solution of semi-synthetic BFP prepared in EXAMPLE 12 was added to 100 μl of 50 mM Tris-HC 1 (pH 7.6) containing 10 mM CaCl2, 1 μl of a solution of coelenterazine (1 μg/μl) in ethanol was mixed with the solution to start the luminescence reaction. The luminescence activity was measured for 10 seconds on a luminometer luminescencer-PSN AB2200 (manufactured by Atto Co., Ltd.). The luminescence activity was determined by repeating the measurement of luminescence activity described above twice and expressed in terms of the maximum luminescence intensity (Imax) of luminescence activity.

[5] = 10 mM CaCl2 buffer pH 7.6, excitation 337 nm
[6] = 10 mM EDTA buffer pH 7.6, excitation 337 nm

## O=C(Cc1ccc(O)cc1)Nc1ncc(-c2ccc(O)cc2)nc1Cc1ccccc1 [Coelenteramide]
[1]; [5]
  Coelenteramide (Buffer containing CaCl2) Fluorescence intensity (rlu): 5.9 rlu
  Coelenteramide (Buffer containing CaCl2) Maximum fluorescence wavelength λmax (nm): 457.0 nm
[1]; [6]
  Coelenteramide (EDTA-containing buffer) Fluorescence intensity (rlu): 4.6 rlu
  Coelenteramide (EDTA-containing buffer) Maximum fluorescence wavelength λmax (nm): 458.0 nm
[2]
  Semi-synthetic gFP (EDTA-containing buffer) Fluorescence intensity (rlu): 165.2 rlu
  Semi-synthetic gFP (EDTA-containing buffer) Maximum fluorescence wavelength λmax (nm): 482.5 nm
[3]
  Fluorescence intensity: 151.2 rlu
  Semi-synthetic BFP (Buffer containing CaCl2) Maximum fluorescence wavelength λmax (nm): 468.5 nm
[4]
  Luciferase activity of semi-synthetic BFP (%): 100.0%

From US9056840B2, “Coelenterazine analogues and coelenteramide analogues” (JNC Corporation, priority 2010, dated 2015)
